Assays:
Type in all cases: functional
[1] = Growth inhibition of human […] cells assessed as cell growth at 100 uM after 48 hrs by SRB assay; conditions: read-out: Activity
UACC-62 [2] = experiment: Growth inhibition of human UACC62 cells assessed as cell growth at 10 uM after 48 hrs by SRB assay; conditions: UACC-62, 48 h, read-out: Activity
SF-539 [3] = experiment: Growth inhibition of human SF539 cells assessed as cell growth at 10 uM after 48 hrs by SRB assay; conditions: SF-539, 48 h, read-out: Activity
IGROV-1 [4] = experiment: Growth inhibition of human IGROV1 cells assessed as cell growth at 100 uM after 48 hrs by SRB assay; conditions: IGROV-1, 48 h, read-out: Activity
OVCAR-3 = experiment: Growth inhibition of human OVCAR3 cells after 48 hrs by […] growth inhibition assay; conditions: OVCAR-3, 48 h
A549 [5] = experiment: Growth inhibition of human A549 cells assessed as cell growth at 0.1 uM after 48 hrs by SRB assay; conditions: A549, 48 h, read-out: Activity
SF-539 [6] = experiment: Growth inhibition of human SF539 cells assessed as cell growth at 0.1 uM after 48 hrs by SRB assay; conditions: SF-539, 48 h, read-out: Activity
OVCAR-5 [7] = experiment: Growth inhibition of human OVCAR5 cells assessed as cell growth at 10 uM after 48 hrs by SRB assay; conditions: OVCAR-5, 48 h, read-out: Activity
MCF7 = experiment: Growth inhibition of human MCF7 cells assessed as cell growth at 1 uM after 48 hrs by SRB assay; conditions: MCF7, 48 h, read-out: Activity
SF-268 = experiment: Growth inhibition of human SF268 cells assessed as cell growth at 10 uM after 48 hrs by SRB assay; conditions: SF-268, 48 h, read-out: Activity
HCC 2998 [8] = experiment: Growth inhibition of human HCC2998 cells assessed as cell growth at 1 mM after 48 hrs by SRB assay; conditions: HCC 2998, 48 h, read-out: Activity
[9] = Growth inhibition of human […] cells assessed as cell growth at 1 uM after 48 hrs by SRB assay; conditions: read-out: Activity
TK-10 [10] = experiment: Growth inhibition of human TK10 cells assessed as cell growth at 0.1 uM after 48 hrs by SRB assay; conditions: TK-10, 48 h, read-out: Activity
OVCAR-5 [11] = experiment: Growth inhibition of human OVCAR5 cells assessed as cell growth at 1 uM after 48 hrs by SRB assay; conditions: OVCAR-5, 48 h, read-out: Activity
TK-10 [12] = experiment: Growth inhibition of human TK10 cells assessed as cell growth at 10 uM after 48 hrs by SRB assay; conditions: TK-10, 48 h, read-out: Activity
ACHN = experiment: Growth inhibition of human ACHN cells after 48 hrs by […] growth inhibition assay
HCT-116 = experiment: Growth inhibition of human HCT116 cells after 48 hrs by […] growth inhibition assay; conditions: HCT-116, 48 h
HOP-62 [13] = experiment: Growth inhibition of human HOP62 cells after 48 hrs by […] growth inhibition assay; conditions: HOP-62, 48 h
UACC-62 [14] = experiment: Growth inhibition of human UACC62 cells assessed as cell growth at 0.1 uM after 48 hrs by SRB assay; conditions: UACC-62, 48 h, read-out: Activity
NCI-H460 [15] = experiment: Growth inhibition of human NCI-H460 cells after 48 hrs by […] growth inhibition assay; conditions: NCI-H460, 48 h
NCI-H460 [16] = experiment: Growth inhibition of human NCI-H460 cells assessed as cell growth at 10 uM after 48 hrs by SRB assay; conditions: NCI-H460, 48 h, read-out: Activity
UACC-257 = experiment: Growth inhibition of human UACC257 cells assessed as cell growth at 100 uM after 48 hrs by SRB assay; conditions: UACC-257, 48 h, read-out: Activity
SN12C [17] = experiment: Growth inhibition of human SN12C cells assessed as cell growth at 1 mM after 48 hrs by SRB assay; conditions: read-out: Activity
IGROV-1 [18] = experiment: Growth inhibition of human IGROV1 cells assessed as cell growth at 1 mM after 48 hrs by SRB assay; conditions: IGROV-1, 48 h, read-out: Activity
A549 [19] = experiment: Growth inhibition of human A549 cells assessed as cell growth at 10 uM after 48 hrs by SRB assay; conditions: A549, 48 h, read-out: Activity
Malme-3M = experiment: Growth inhibition of human MALME-3M cells assessed as cell growth at 10 uM after 48 hrs by SRB assay; conditions: read-out: Activity
SN12C [20] = experiment: Growth inhibition of human SN12C cells assessed as cell growth at 10 uM after 48 hrs by SRB assay; conditions: read-out: Activity
SN12C [21] = experiment: Growth inhibition of human SN12C cells assessed as cell growth at 1 uM after 48 hrs by SRB assay; conditions: read-out: Activity
MDA-MB-231 = experiment: Growth inhibition of human MDA-MB-231 cells after 48 hrs by […] growth inhibition assay; conditions: MDA-MB-231, 48 h
HCC 2998 [22] = experiment: Growth inhibition of human HCC2998 cells assessed as cell growth at 1 uM after 48 hrs by SRB assay; conditions: HCC 2998, 48 h, read-out: Activity
COLO 205 = experiment: Growth inhibition of human COLO205 cells assessed as cell growth at 1 mM after 48 hrs by SRB assay; conditions: COLO 205, 48 h, read-out: Activity
T47D = experiment: Growth inhibition of human T47D cells assessed as cell growth at 10 uM after 48 hrs by SRB assay; conditions: read-out: Activity
HOP-92 = experiment: Growth inhibition of human HOP92 cells assessed as cell growth at 1 uM after 48 hrs by SRB assay; conditions: HOP-92, 48 h, read-out: Activity
HOP-62 [23] = experiment: Growth inhibition of human HOP62 cells assessed as cell growth at 1 mM after 48 hrs by SRB assay; conditions: HOP-62, 48 h, read-out: Activity
[24] = Growth inhibition of human Hs 578T cells assessed as cell growth at 10 uM after 48 hrs by SRB assay; conditions: read-out: Activity
[25] = read-out: LC50 (the source's name)
[26] = read-out: pLC50 (the source's name) (converted)

Compound: CNC(=O)NC[C@H]1O[C@@H](n2cnc3c(NC(=O)Nc4ccccc4)ncnc32)[C@H](O[Si](C)(C)C(C)(C)C)[C@@H]1O[Si](C)(C)C(C)(C)C
- growth at 100 µM [1]: 5%
- growth at 10 µM (UACC-62 [2]): 90%
- growth at 10 µM (SF-539 [3]): 91%
- growth at 100 µM (IGROV-1 [4]): -12%
- GI50 (OVCAR-3; read-out: GI50): 2.6 µM
- CC50 (OVCAR-3; [25]): 98.2 µM
- TGI (OVCAR-3; read-out: TGI): 5.54 µM
- GI50 (OVCAR-3; read-out: pGI50 (converted)): 2.63 µM
- CC50 (OVCAR-3; [26]): 97.7 µM
- TGI (OVCAR-3; read-out: pTGI (converted)): 5.5 µM
- growth at 0.1 µM (A549 [5]): 99%
- growth at 0.1 µM (SF-539 [6]): 100%
- growth at 10 µM (OVCAR-5 [7]): 103%
- growth at 1 µM (MCF7): 96%
- growth at 10 µM (SF-268): 102%
- growth at 1000 µM (HCC 2998 [8]): -91%
- growth at 1 µM [9]: 98%
- growth at 0.1 µM (TK-10 [10]): 110%
- growth at 1 µM (OVCAR-5 [11]): 99%
- growth at 10 µM (TK-10 [12]): 112%
- GI50 (ACHN; read-out: GI50): 3.83 µM
- CC50 (ACHN; [25]): > 100 µM
- TGI (ACHN; read-out: TGI): > 100 µM
- GI50 (ACHN; read-out: pGI50 (converted)): 3.8 µM
- CC50 (ACHN; [26]): > 100 µM
- TGI (ACHN; read-out: pTGI): > 100 µM
- GI50 (HCT-116; read-out: GI50): 2.11 µM
- CC50 (HCT-116; [25]): 8.8 µM
- TGI (HCT-116; read-out: TGI): 4.31 µM
- GI50 (HCT-116; read-out: pGI50 (converted)): 2.09 µM
- CC50 (HCT-116; [26]): 8.71 µM
- TGI (HCT-116; read-out: pTGI (converted)): 4.27 µM
- GI50 (HOP-62 [13]; read-out: GI50): 4.98 µM
- CC50 (HOP-62 [13]; [25]): 48 µM
- TGI (HOP-62 [13]; read-out: TGI): 17.1 µM
- GI50 (HOP-62 [13]; read-out: pGI50 (converted)): 5.01 µM
- CC50 (HOP-62 [13]; [26]): 47.9 µM
- TGI (HOP-62 [13]; read-out: pTGI (converted)): 17 µM
- growth at 0.1 µM (UACC-62 [14]): 102%
- GI50 (NCI-H460 [15]; read-out: GI50): 1.72 µM
- CC50 (NCI-H460 [15]; [25]): 7.11 µM
- TGI (NCI-H460 [15]; read-out: TGI): 3.49 µM
- GI50 (NCI-H460 [15]; read-out: pGI50 (converted)): 1.7 µM
- CC50 (NCI-H460 [15]; [26]): 7.08 µM
- TGI (NCI-H460 [15]; read-out: pTGI (converted)): 3.47 µM
- growth at 10 µM (NCI-H460 [16]): 88%
- growth at 100 µM (UACC-257): 11%
- growth at 1000 µM (SN12C [17]): -90%
- growth at 1000 µM (IGROV-1 [18]): -39%
- growth at 10 µM (A549 [19]): 90%
- growth at 10 µM (Malme-3M): 96%
- growth at 10 µM (SN12C [20]): 98%
- growth at 1 µM (SN12C [21]): 100%
- GI50 (MDA-MB-231; read-out: GI50): 2.61 µM
- CC50 (MDA-MB-231; [25]): 28.3 µM
- TGI (MDA-MB-231; read-out: TGI): 6.12 µM
- GI50 (MDA-MB-231; read-out: pGI50 (converted)): 2.63 µM
- CC50 (MDA-MB-231; [26]): 28.2 µM
- TGI (MDA-MB-231; read-out: pTGI (converted)): 6.17 µM
- growth at 1 µM (HCC 2998 [22]): 93%
- growth at 1000 µM (COLO 205): -94%
- growth at 10 µM (T47D): 92%
- growth at 1 µM (HOP-92): 80%
- growth at 1000 µM (HOP-62 [23]): -86%

Compound: CNC(=O)OC[C@H]1O[C@@H](n2cnc3c(NC(=O)Nc4ccccc4)ncnc32)[C@H](O[Si](C)(C)C(C)(C)C)[C@@H]1O[Si](C)(C)C(C)(C)C
- growth at 10 µM (UACC-62 [2]): 106%
- growth at 10 µM (SF-539 [3]): 97.1%
- growth at 10 µM (OVCAR-5 [7]): 120%
- growth at 10 µM (SF-268): 85.2%
- growth at 10 µM (TK-10 [12]): 96%
- growth at 10 µM [24]: 97.6%
- growth at 10 µM (NCI-H460 [16]): 103%
- growth at 10 µM (A549 [19]): 80.8%
- growth at 10 µM (Malme-3M): 114%
- growth at 10 µM (SN12C [20]): 101%
- growth at 10 µM (T47D): 116%

From ChEMBL document CHEMBL1681651, “A broad spectrum anticancer nucleoside with selective toxicity against human colon cells in vitro” (2011)
